Data reported in patent publication US12617777B2, “GPR84 antagonists and uses thereof” (Liminal BioSciences Limited, priority 2021, dated 2026).

Target: T1, human GPR84 receptor (Homo sapiens, UniProt Q9NQS5)
T1 construct: host or cells: HEK293, transient transfection
Experiment: Gαi biosensor BRET assay in HEK293 cells (antagonism of ZQ-16)
Assay type: cell-based
Conditions: for inhibition at 10 µM: HEK293, single concentration 10 μM (designated F); for inhibition at 2 µM: HEK293, single concentration 2 μM (designated A); for IC50: HEK293 cells, antagonism of 200 nmol/L ZQ-16; for inhibition at 25 µM: HEK293, single concentration 25 μM (designated I)
Summary of the method: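 HEK293 cells transiently expressing human GPR84, Gαi2-Rluc8, GFP10-Gγ2 and Gβ1, in Tyrode's buffer pH 7.5. Compounds preincubated 5 min at 37° C, then 200 nmol/L ZQ-16 for 5 min at room temperature; coelenterazine 400A 5 μmol/L. BRET2 acceptor/donor ratio, background- and vehicle-corrected net BRET.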

T1 sequence (Q9NQS5 whole entry): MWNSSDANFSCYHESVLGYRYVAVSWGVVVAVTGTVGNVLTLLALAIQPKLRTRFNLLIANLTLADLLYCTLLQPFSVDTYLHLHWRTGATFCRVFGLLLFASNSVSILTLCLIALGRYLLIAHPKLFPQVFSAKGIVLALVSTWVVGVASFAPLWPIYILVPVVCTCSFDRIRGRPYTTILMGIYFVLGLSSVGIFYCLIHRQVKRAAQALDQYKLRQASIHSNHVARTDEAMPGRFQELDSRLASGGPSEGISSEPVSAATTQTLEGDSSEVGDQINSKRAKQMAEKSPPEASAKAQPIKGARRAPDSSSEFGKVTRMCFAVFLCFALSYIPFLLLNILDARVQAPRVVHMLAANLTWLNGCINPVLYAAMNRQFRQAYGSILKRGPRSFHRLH

SMILES	inhibition at 10 µM	also measured
Cc1cc(C#CCN2CC(C)(C)C2)cnc1-c1cn(C[C@H]2CCCCO2)nn1 [Compound I-284]	> 75%	
Cc1ccc(C#CC2CC2)cc1-c1nnc(CC2CCCCO2)o1 (centres unmarked) [Compound I-343]	50 to 75%	
CCc1cc(C#CCN(C)CC2CC2)cnc1-c1cn(CC2CCCCO2)nn1 (centres unmarked) [Compound I-276]	> 75%	
CC(=O)N1CCOC(Cn2cc(-c3ccc(C#CC4CC4)cc3C)nn2)C1 (centres unmarked) [Compound I-96]	≤ 25%	
CCc1cc(C#CCNC)ccc1-c1cn(CC2OCC(C)(C)CO2)nn1 [Compound I-859]		inhibition at 2 µM: > 75%
Cc1ccc(C#CC2CC2)cc1C(OCC(F)(F)F)c1cn(CC2OCC(C)(C)CO2)nn1 (centres unmarked) [Compound I-617, 4-((5-(cyclopropylethynyl)-2-methylphenyl)(2,2,2-trifluoroethoxy)methyl)-1-((5,5-dimethyl-1,3-dioxan-2-yl)methyl)-1H-1,2,3-triazole]	> 75%	IC50: ≤ 300 nM
COCC#Cc1ccc(-c2cn(CC3OCC(C)(C)CO3)nn2)c(N(C)C)c1 [Compound I-829]	> 75%	IC50: ≤ 300 nM
OCc1cc(C#CC2CC2)ccc1-c1cn(CC2CCCCO2)nn1 (centres unmarked) [Compound I-216]	≤ 25%	
CC1(CO)CN(c2ccc(-c3cn(CC4OCC5(CCC5)O4)nn3)c(OC3CC3)c2)C1 (centres unmarked) [Compound I-810]	> 75%	IC50: 300 to 1000 nM
CC1(C)COC(Cn2cc(-c3ncc(C#CCO)cc3OC3CC3)nn2)OC1 [Compound I-771]		IC50: ≤ 300 nM
Cc1cc(F)c(C#CC2CC2)cc1-c1cn(CC2CCCCO2)nn1 (centres unmarked) [Compound I-249]	50 to 75%	
CC1(CO)CN(c2cnc(-c3cn(CC4OCC5(CCC5)O4)nn3)c(Cl)c2)C1 (centres unmarked) [Compound I-807]	> 75%	
Cc1cc(N2CC(C)(CO)C2)c(F)cc1-c1cn(C[C@H]2CCCCO2)nn1 [Compound I-804]		inhibition at 1 µM (HEK293, single concentration 1 μM (designated A°)): 25 to 50%; IC50: 300 to 1000 nM
Cc1cc(C#CCO)ccc1-c1cn(CC2OCC(F)(F)CO2)nn1 [Compound I-692]	50 to 75%	
Cc1cc(C#CC2CCC2)ccc1-c1cn(CC2CCCCO2)nn1 (centres unmarked) [Compound I-540]	> 75%	
Cc1cc(C#CC2CC2)ccc1-c1nnc(CC2CCCCO2)o1 (centres unmarked) [Compound I-342, 2-(4-(cyclopropylethynyl)-2-methylphenyl)-5-((tetrahydro-2H-pyran-2-yl)methyl)-1,3,4-oxadiazole]	≤ 25%	
Cc1cc(C#CC2CC2)ccc1-c1cn(CC23CCC(CC2)CO3)nn1 [Compound I-509]		inhibition at 2 µM: ≤ 25%
CN(C)c1cc(N2CC(C)(CO)C2)ccc1-c1cn(CC2CC3(CC3)CO2)nn1 (centres unmarked) [Compound I-707]	> 75%	IC50: ≤ 300 nM
C(#CC1CC1)c1ccc(-c2cn(CC3CCCCO3)nn2)cn1 (centres unmarked) [Compound I-35]		inhibition at 25 µM: ≤ 25%
FC(F)(F)Cc1cc(N2CCN(Cc3ccccn3)CC2)ccc1-c1cn(C[C@H]2CCCCO2)nn1 [Compound I-746]		inhibition at 2 µM: > 75%; IC50: ≤ 300 nM
Cn1cc(-c2ccc(C#CC3CC3)cc2)nc1CC1CCCCO1 (centres unmarked) [Compound I-337]		inhibition at 5 µM (HEK293, single concentration 5 μM (designated D)): ≤ 25%
CCc1cc(C#CCN(C)C2CC2)ccc1-c1cn(CC2OCC(C)(C)CO2)nn1 [Compound I-857]	≤ 25%	
Cc1cc(C#CC2CC2)ccc1-c1cn(CC2COCCN2C)nn1 (centres unmarked) [Compound I-527]	≤ 25%	
C(#CC1CC1)c1ccc(-c2cn(CC3OCC4(CCC4)O3)nn2)c(OC2CC2)c1 (centres unmarked) [Compound I-798]	> 75%	
Cc1cc(C#CC2CC2)cnc1-c1cn(CC2OCC3(CCC3)CO2)nn1 [Compound I-840]		inhibition at 2 µM: > 75%
Cc1cc(CN2CC(=O)NC2=O)ccc1-c1cn(CC2CCCCO2)nn1 (centres unmarked) [Compound I-558]	≤ 25%	
C(#CC1CC1)c1ccc(-c2nnn(CC3CCCCO3)n2)cc1 (centres unmarked) [Compound I-1]		inhibition at 25 µM: ≤ 25%
Cc1cc(N2CCN(c3ccncc3)CC2)ccc1-c1cn(CC2CCCCO2)nn1 (centres unmarked) [Compound I-563]	≤ 25%	
Cc1cc(N2CCN(Cc3ccccc3)CC2)ccc1-c1cn(CC2CCCCO2)nn1 (centres unmarked) [Compound I-140]	25 to 50%	
